Measurements taken from patent US9441261B2, “Use of bacterial beta-lactamase for in vitro diagnostics and in vivo imaging, diagnostics and therapeutics” (priority 2008, dated 2016).
Entries after “also recorded” stand apart in the source; their conditions may differ. Read-outs that look alike come from different tables or passages of the source.

Key:
[1] = target: T1, TEM-1 Bla (Escherichia coli, UniProt P62593); format: biochemical, E. coli; conditions: for hydrolysis by TEM-1 bla: in words
[2] = target: Bla (Escherichia coli, UniProt P62593); format: biochemical; conditions: CC1 versus analog without inserted double bond
[3] = tested on: Bla in live E. coli; assay: Detection of Bla activity in living E. coli; format: cell-based; conditions: E. coli with ampicillin resistant plasmid, LB media
[4] = target: T2, Mtb BlaC (Mycobacterium tuberculosis, UniProt P9WKD3); assay: Hydrolysis kinetics of coumarin-based lactam probes by Mtb BlaC (fluorescence of released 7-hydroxycoumarin); format: biochemical
[5] = target: T2, Mtb BlaC; format: biochemical; conditions: for enzyme preference Mtb BlaC versus TEM-1 Bla: in words
[6] = target: T1, TEM-1 Bla; conditions: cefoperazone versus CNIR5
[7] = tested on: Bacillus Calmette-Guerin; format: cell-based, Mycobacterium bovis; conditions: 2 ng/μl rifampicin or 0.2 ng/μl INH, sputum, CDG-OMe, 24 hour
[8] = tested on: CCN1CCN(C(=O)N[C@@H](C(=O)N[C@@H]2C(=O)N3C(C(=O)O)=C(CSc4nnnn4C)CS[C@H]23)c2ccc(O)cc2)C(=O)C1=O; assay: purified protein, by the assay type

T2 sequence (P9WKD3 35-307): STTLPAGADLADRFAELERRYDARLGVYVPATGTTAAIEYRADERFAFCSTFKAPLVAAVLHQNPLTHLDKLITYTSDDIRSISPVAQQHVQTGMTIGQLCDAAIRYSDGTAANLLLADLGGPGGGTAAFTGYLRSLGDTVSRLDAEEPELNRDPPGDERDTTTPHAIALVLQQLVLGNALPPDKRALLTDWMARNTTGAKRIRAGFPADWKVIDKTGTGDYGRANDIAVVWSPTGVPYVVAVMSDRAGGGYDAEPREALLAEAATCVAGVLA
T1 sequence (P62593 24-286 limits assumed): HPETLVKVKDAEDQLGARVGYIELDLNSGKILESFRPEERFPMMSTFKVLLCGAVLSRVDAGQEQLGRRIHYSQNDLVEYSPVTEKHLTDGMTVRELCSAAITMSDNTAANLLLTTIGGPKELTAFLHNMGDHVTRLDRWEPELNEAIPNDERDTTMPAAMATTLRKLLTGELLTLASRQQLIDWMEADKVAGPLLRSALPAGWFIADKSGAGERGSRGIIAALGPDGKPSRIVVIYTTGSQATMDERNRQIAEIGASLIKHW
Sequence of Bla (P62593 24-286 limits assumed): as above

With CO[C@@]1(NC(C)=O)C(=O)N2C(C(=O)O)=C(COc3ccc4ccc(=O)oc4c3)CS[C@@H]21 [4-64] the “hydrolysis by TEM-1 bla” value [1] was “so slow that cannot be determined”.

With O=C(Cc1ccccc1)N[C@@H]1C(=O)N2C(C(=O)O)=C(/C=C\COc3ccc4ccc(=O)oc4c3)CS[C@H]12 [CC1] the “increase in the catalytic efficiency by the inserted double bond” value [2] was ~5 fold.

CCCC(=O)Oc1cc2oc(=O)c(C(=O)NCC(=O)N[C@@H]3C(=O)N4C(C(=O)OCOC(C)=O)=C(CSc5ccc6c(c5)C(=O)OC65c6ccc(OC(C)=O)cc6Oc6cc(OC(C)=O)ccc65)CS[C@H]34)cc2cc1Cl [CCF2/AM] was tested, and the “detection of Bla in live E. coli” value [3] was “not detected”.

O=C(Cc1ccccc1)N[C@@H]1C(=O)N2C(C(=O)O)=C(COc3ccc4ccc(=O)oc4c3)CS[C@H]12 [CDC-1] was tested, and the “enzyme preference Mtb BlaC versus TEM-1 Bla” value ([4]; in words) was “TEM-1 Bla-preferred”.

With O=C(Cc1ccccc1)N[C@@H]1C(=O)N2C(C(=O)O)=C(COc3ccc4ccc(=O)oc4c3)C[S+]([O-])[C@H]12 (some centres unmarked) [CDC-2] the kcat ([4]; blaC) was 0.51 s⁻¹ and the kcat ([1]; TEM-1 bla) was 7 s⁻¹.

For CCO[C@@]1(NC(=O)Cc2ccccc2)C(=O)N2C(C(=O)O)=C(COc3ccc4ccc(=O)oc4c3)CS[C@@H]21 [CDC-OEt], the “hydrolysis by TEM-1 bla” value [1] was “so slow that cannot be determined”.

CO[C@@]1(NC(=O)Cc2ccccc2)C(=O)N2C(C(=O)O)=C(COc3ccc4ccc(=O)oc4c3)CS[C@@H]21 [CDC-OMe] was tested, and the “kcat/Km for blaC larger than for TEM-1 bla” value [4] was 1,400 fold.

With CCN1CCN(C(=O)N[C@@H](C(=O)N[C@@H]2C(=O)N3C(C(=O)O)=C(CSc4nnnn4C)CS[C@H]23)c2ccc(O)cc2)C(=O)C1=O [cefoperazone] the “faster kinetics with the Mtb enzyme than the TEM-1 enzyme” value [5] was 10-100 fold, the “enzyme preference Mtb BlaC versus TEM-1 Bla” value [5] was “preferred substrate for Mtb BlaC as compared to TEM-1 Bla; also recorded: better kinetics with the Mtb BlaC than TEM-1” and the “kcat/KM for TEM-1 Bla smaller than that of CNIR5” value [6] was 100 fold.

For CO/N=C(\C(=O)N[C@@H]1C(=O)N2C(C(=O)O)=C(COC(C)=O)CS[C@H]12)c1csc(N)n1 [cefotaxime], the “enzyme preference Mtb BlaC versus TEM-1 Bla” value [5] was “better kinetics with the Mtb BlaC than TEM-1”.

CO[C@@]1(NC(=O)Cc2cccs2)C(=O)N2C(C(=O)O)=C(COC(N)=O)CS[C@@H]21 [cefoxitin] was tested, and the “enzyme preference Mtb BlaC versus TEM-1 Bla” value [5] was “better kinetics with the Mtb BlaC than TEM-1”.

In the case of NNC(=O)c1ccncc1 [isoniazide], the “fluorescence of BCG with drug over time” value [7] was “effectively no increase in fluorescence”.

With “Mtb BlaC (Mycobacterium tuberculosis H37Rv)” the Km [8] was 76 µM, the kcat [8] was 2.01 s⁻¹ and the kcat/Km [8] was 26000 M⁻¹ s⁻¹.

Compound TEM-1 Bla (Escherichia coli) has a Km ([8]; other: TEM-1 Bla) of 262 µM, a kcat ([8]; other: TEM-1 Bla) of 0.26 s⁻¹ and a kcat/Km ([8]; other: TEM-1 Bla) of 1000 M⁻¹ s⁻¹.
